The target of this assay is T1, L type amino acid transporter 1 (LAT1) (Homo sapiens, UniProt Q01650).
T1 construct: gene SLC7A5; with 4F2 heavy chain (4F2hc)
The assay can be described thus: inhibition of […] L-leucine uptake ([…] min, […] °C) in MDA-MB-231 cells (endogenous LAT1); […] in T-47D cells. It counts as cell-based.

Among the data in publication PMC8770514, “Induction of CTH expression in response to amino acid starvation confers resistance to anti-LAT1 therapy in MDA-MB-231 cells” (Scientific Reports, 2022) are IC50 values, retold here.

One may read the IC50 as the concentration that gives 50% inhibition. High values mean lower potency, low ones higher potency.

T1 sequence (Q01650 whole entry): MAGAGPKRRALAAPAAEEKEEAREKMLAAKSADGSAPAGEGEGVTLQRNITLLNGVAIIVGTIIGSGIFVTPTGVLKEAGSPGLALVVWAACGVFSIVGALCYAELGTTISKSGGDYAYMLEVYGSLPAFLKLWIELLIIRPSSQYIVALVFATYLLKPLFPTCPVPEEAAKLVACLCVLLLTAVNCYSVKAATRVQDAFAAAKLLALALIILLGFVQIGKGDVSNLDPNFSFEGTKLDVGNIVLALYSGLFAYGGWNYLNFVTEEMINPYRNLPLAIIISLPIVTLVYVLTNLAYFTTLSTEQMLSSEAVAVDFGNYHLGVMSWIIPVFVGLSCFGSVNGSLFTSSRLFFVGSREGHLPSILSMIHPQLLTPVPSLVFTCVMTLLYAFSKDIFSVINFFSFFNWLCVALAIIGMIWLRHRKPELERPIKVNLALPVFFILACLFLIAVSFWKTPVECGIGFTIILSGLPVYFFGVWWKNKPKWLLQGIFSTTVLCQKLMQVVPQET
T1 sequence (P08195 103-630 partner): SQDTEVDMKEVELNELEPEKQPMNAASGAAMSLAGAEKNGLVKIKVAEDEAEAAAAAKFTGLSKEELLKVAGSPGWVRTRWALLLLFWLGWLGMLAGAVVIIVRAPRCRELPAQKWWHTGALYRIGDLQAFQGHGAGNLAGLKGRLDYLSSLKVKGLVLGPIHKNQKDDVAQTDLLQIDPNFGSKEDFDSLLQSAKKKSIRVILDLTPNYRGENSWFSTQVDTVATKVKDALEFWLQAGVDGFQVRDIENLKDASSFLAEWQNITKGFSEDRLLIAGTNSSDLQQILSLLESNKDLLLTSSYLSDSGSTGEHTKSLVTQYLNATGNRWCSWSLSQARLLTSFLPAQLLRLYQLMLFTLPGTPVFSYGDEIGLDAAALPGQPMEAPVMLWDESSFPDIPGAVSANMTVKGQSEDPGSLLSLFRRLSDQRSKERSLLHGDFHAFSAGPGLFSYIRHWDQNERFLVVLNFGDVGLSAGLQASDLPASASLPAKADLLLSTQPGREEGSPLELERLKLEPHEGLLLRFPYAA

The compound `Nc1cc(COc2c(Cl)cc(C[C@H](N)C(=O)O)cc2Cl)c2oc(-c3ccccc3)nc2c1` [JPH203, (S)-2-amino-3-(4-((5-amino-2-phenylbenzo[d]oxazol-7-yl)methoxy)-3,5-dichlorophenyl)-propanoic acid] showed an IC50 of 60 ± 20 nM.
